Experimental data published in patent US20130042333A1, “MARKERS FOR CANCER PROGNOSIS AND THERAPY AND METHODS OF USE” (priority 2011, published 2013).

What was measured:
[1] = tested on: HBCx-24 breast tumor xenograft; assay: Tumor regression-regrowth assay, HBCx-24 xenograft; type: in vivo, human tumor in Swiss nude mice; details: Doc 20 mg/kg, x2 cycles
Excerpt: (§1) Tumor xenografts were generated by direct subcutaneous grafting into immunodeficient mice of human tumor surgical samples with informed written consent of the patients and maintained by serial transplantation. […] They are thus clinically relevant tumor models, as opposed to xenografts produced from tumor cell lines that have been obtained by in vitro culture and often passaged for many years (Fiebig, H. H. et al. Eur J Cancer 40, 802-820, 2004; Marangoni E., Vincent-Salomon A., Auger N. et al. Clin Cancer Res. 2007 Jul. 1; 13:3989-98).
(§2) Chemotherapeutic drugs were administered by intraperitoneal route according to the following doses and schedules: adriamycin, 2 mg/kg, q3wk (Doxorubicin®, Teva Pharmaceuticals, France) and Cyclophosphamide, 100 mg/kg, q3wk (Endoxan®, Baxter, France). Irinotecan (Campto®, Pfizer Holding France), 50 mg/kg, q4dx4. Etoposide 12 mg/kg, qdx3. Ifosfamide 90 mg/kg, qdx3. bPARP inhibitor (AZD2281, Sequoia Research Products, UK) at 50 mg/kg (ip; qdx14). A second treatment cycle was performed with PARP inhibitor at 50 mg/kg (ip qdx5) during the nodule phase. Other pharmacological inhibitors are tested and administrated at the nodule phase: JAK1/2 Inhibitor (CP-690550) at 15 mg/kg (po qdx14), Epigallocatechin gallate (ECGC) (Sequoia Research Products, UK) at 30 mg/kg (ip qdx28), HDAC inhibitor (Trichostatine A), Retinoic acid at 50 mg/kg (ip qdx28) (Sigma-Aldrich, France). Breast tumor xenograft models were transplanted into 5-week old female Swiss nude mice, as described above, one tumor being transplanted into 5-10 recipients. When tumors reached a volume of 60-250 mm3, mice were individually identified and randomly assigned to the control or treated groups (12 to 20 mice per group). Tumor volume was evaluated by measuring two perpendicular diameters of the tumor, with a calliper, biweekly during the treatment period and once a week during the follow-up period. The formula TV (mm3)=[length (mm)×width (mm)2]/2 was used, where the length and the width were the longest and the shortest diameters of the tumor, respectively. All animals were weighted biweekly during the treatment period and the follow-up period. Mice were ethically sacrificed when the tumor volume reached 2000 mm3 Individual tumor growth delays (TGD) is calculated as the time in days required for individual tumors to reach 3- to 5-fold the initial median tumor volume. The tumor growth delay index (TGDI) is calculated as the median growth delay in the treated group divided by the median growth delay in the control group. The percentage ratio between the mean tumor volume of a treated group (T) and the mean tumor volume of the control group (C) is calculated.
(§3) Tumors were collected from 5 independent mice at different time points: prior to treatment (=controls with volume<200 mm3); post-treatment residual tumors (=nodules with volume<32 mm3 until minimal palpation); recurrent tumors (=regrowth with volume>62.5 mm3) Tumors or nodules were processed for (1) FFPE (formalin-fixed paraffin-embedded) or for (2) snap frozen samples: samples were cut into 3-4 mm pieces (at least 3 fragments) and snap-frozen in liquid nitrogen, then transferred to −80° C. for storage. Samples were allocated for histology, microdissection and RNA analyses.
(§4) Three categories of responders were defined based on the TGDI and T/C values.

[2] = tested on: IC20DAN (a primary NSCLC tumor xenograft); assay: Tumor regression-regrowth assay, IC20DAN xenograft; type: in vivo, human tumor in immunodeficient mice; details: Doc 20 mg/kg, x1 cycle
Excerpt: as §1, §2, §3, §4

[3] = tested on: SC61 small-cell lung cancer xenograft; assay: Tumor regression-regrowth assay, SC61 xenograft; type: in vivo, human tumor in immunodeficient mice; details: x1 cycle
Excerpt: as §1
Chemotherapeutic drugs were administered by intraperitoneal route according to the following doses and schedules: adriamycin, 2 mg/kg, q3wk (Doxorubicin®, Teva Pharmaceuticals, France) and Cyclophosphamide, 100 mg/kg, q3wk (Endoxan®, Baxter, France). Irinotecan (Campto®, Pfizer Holding France), 50 mg/kg, q4dx4. Etoposide 12 mg/kg, qdx3. Ifosfamide 90 mg/kg, qdx3. bPARP inhibitor (AZD2281, Sequoia Research Products, UK) at 50 mg/kg (ip; qdx14). A second treatment cycle was performed with PARP inhibitor at 50 mg/kg (ip qdx5) during the nodule phase. […] Tumor volume was evaluated by measuring two perpendicular diameters of the tumor, with a calliper, biweekly during the treatment period and once a week during the follow-up period. […] Mice were ethically sacrificed when the tumor volume reached 2000 mm3 Individual tumor growth delays (TGD) is calculated as the time in days required for individual tumors to reach 3- to 5-fold the initial median tumor volume. The tumor growth delay index (TGDI) is calculated as the median growth delay in the treated group divided by the median growth delay in the control group. The percentage ratio between the mean tumor volume of a treated group (T) and the mean tumor volume of the control group (C) is calculated. […]

[4] = tested on: ODA14 RAV glioma xenograft; assay: Tumor regression-regrowth assay, ODA14 RAV xenograft; type: in vivo, human tumor in immunodeficient mice; details: TMZ 42 mg/kg, x1 cycle
Excerpt: as §1, §2, §3, §4

[5] = tested on: 21 genes implicated in IFN/Stat pathway; assay: Real-time quantitative RT-PCR of the 21-gene IFN/Stat signature in tumor xenografts after chemotherapy; type: in vivo, human tumor in immunodeficient mice; details: colorectal tumor xenograft (TC301)
Method: Samples were allocated for histology, microdissection and RNA analyses.
Total RNA amount was measured using the Nanodrop (ND1000, ThermoFisher) and RNA quality was assessed with the Agilent 2100 Bioanalyzer onto RNA NanoChip (Agilent Technology, Massy, France). Three samples from each condition were pooled. Two μg of total RNA were reverse-transcribed with the First strand cDNA synthesis kit (Roche Applied Science, Switzerland) according to manufacturer's instructions. For the priming method, a combination of ¾ random hexamer primers and ¼ anchored-oligo(dT)18 primers was used to avoid 3′-prime bias in cDNAs. qPCR analyses of gene transcripts was done with 5 ng of RNA for each reaction. Three housekeeping genes were used as references for relative quantification of target genes expression. […]
Validation of the microarray gene and microRNA expression data was performed by qPCR using primers specific for human sequences (eg. non-cross-reactive with murine sequences). The effect of chemotherapy on the activation of 21 genes implicated in IFN/Stat pathway (IFIT1, IFITM1, IRF9, IFI6, IFI44, IFI44L, OAS1, OAS2, LAMP3, MX1, PARP9, PARP12, SAMD9, SAMD9L, BST2, DDX60, CLDN1, STAT1, STAT2, UBE2L6, ZNFX1) and two miRNA (miR-142-3p and miR150) was analyzed in responder versus non-responder tumor models. […]

[6] = tested on: TC301 colorectal cancer xenograft; assay: Tumor regression-regrowth assay, TC301 xenograft; type: in vivo, human tumor in immunodeficient mice; details: I 40 mg/kg, x1 cycle
Excerpt: as §1
as §2, with “Irinotecan (Campto®, Pfizer Holding France), 50 mg/kg, q4dx4.” left out, “calculated. […]” for “calculated.”

[7] = tested on: HBCx-6 breast cancer xenograft; assay: Tumor regression-regrowth assay, HBCx-6 xenograft; type: in vivo, human tumor in Swiss nude mice; details: HBCx-6 combination study; A/C 2/100 mg/kg; AZD2281 50 mg/kg i.p.
Excerpt: as §1
Chemotherapeutic drugs were administered by intraperitoneal route according to the following doses and schedules: adriamycin, 2 mg/kg, q3wk (Doxorubicin®, Teva Pharmaceuticals, France) and Cyclophosphamide, 100 mg/kg, q3wk (Endoxan®, Baxter, France). […] Tumor volume was evaluated by measuring two perpendicular diameters of the tumor, with a calliper, biweekly during the treatment period and once a week during the follow-up period. […] Mice were ethically sacrificed when the tumor volume reached 2000 mm3 Individual tumor growth delays (TGD) is calculated as the time in days required for individual tumors to reach 3- to 5-fold the initial median tumor volume. The tumor growth delay index (TGDI) is calculated as the median growth delay in the treated group divided by the median growth delay in the control group. […]

[8] = tested on: TC71 colorectal tumor xenograft; assay: Tumor regression-regrowth assay, TC71 xenograft; type: in vivo, human tumor in immunodeficient mice; details: x1 cycle, mg/kg: Ox 10, Cap 540, I 50, B 5, Cet 5
Excerpt: as §1, §2, §3, §4

[9] = tested on: TC305 colorectal tumor xenograft; assay: Tumor regression-regrowth assay, TC305 xenograft; type: in vivo, human tumor in immunodeficient mice; details: x1 cycle, mg/kg: Ox 10, Cap 540, I 50, B 5, Cet 5
Excerpt: as §1, §2, §3, §4

[10] = tested on: HBCx-17 breast tumor xenograft; assay: Tumor regression-regrowth assay, HBCx-17 xenograft; type: in vivo, human tumor in Swiss nude mice; details: A/C 2/100 or Cap 540 mg/kg, x2 cycles
Excerpt: as §1, §2, §3, §4

[11] = tested on: HBCx-39 breast tumor xenograft; assay: Tumor regression-regrowth assay, HBCx-39 xenograft; type: in vivo, human tumor in Swiss nude mice; details: Cap 540 mg/kg, x2 cycles
Excerpt: as §1, §2, §3, §4

[12] = CDDP 2/12 or VP16/IFO 12/90 mg/kg

CC(=O)O[C@@]12CO[C@@H]1C[C@H](O)[C@@]1(C)C(=O)[C@H](O)C3=C(C)[C@@H](OC(=O)[C@H](O)[C@@H](NC(=O)OC(C)(C)C)c4ccccc4)C[C@@](O)([C@@H](OC(=O)c4ccccc4)[C@H]21)C3(C)C [Doc, docetaxel]
% Nodules [1]: 70%
% Tumor Relapse [1]: 71.4%
Median Nodule Apparition Time [1]: 10
Median Time of Relapse [1]: 14
T/C % D21 [1]: 21%
TGDI [1]: 2.39
median TGD × 5 [1]: 35.44 days
% Nodules [2]: 60%
% Tumor Relapse [2]: 100%
Median Nodule Apparition Time [2]: 11
Median Time of Relapse [2]: 9
TGDI [2]: >4.8
median TGD × 5 [2]: >24 days

[NH2][Pt]([NH2])([Cl])[Cl] [CDDP, cisplatin]
% Tumor Relapse ([3]; CDDP 2/12 mg/kg): 100%
% Nodules [3, 12]: 23%
Median Nodule Apparition Time [3, 12]: 13

Cn1nnc2c(C(N)=O)ncn2c1=O [TMZ]
% Nodules [4]: 100%
% Tumor Relapse [4]: 100%
Median Nodule Apparition Time [4]: 7
Median Time of Relapse [4]: 21
TGDI [4]: 6.66
median TGD × 5 [4]: 46.62 days

CCc1c2c(nc3ccc(OC(=O)N4CCC(N5CCCCC5)CC4)cc13)-c1cc3c(c(=O)n1C2)COC(=O)[C@]3(O)CC [I, Irinotecan]
expression of IFN/Stat gene signature in residual nodules (qPCR) [5]: gene expression was globally increased
% Nodules [6]: 43%
% Tumor Relapse [6]: 100%
Median Nodule Apparition Time [6]: 26
Median Time of Relapse [6]: 18

O=C(c1cc(Cc2n[nH]c(=O)c3ccccc23)ccc1F)N1CCN(C(=O)C2CC2)CC1 [AZD2281]
anti-tumor activity [7]: significant anti-tumor activity
tumors showing complete tumor regression [7]: 2 out of 7

CCCCCOC(=O)Nc1nc(=O)n([C@@H]2O[C@H](C)[C@@H](O)[C@H]2O)cc1F [Cap, capecitabine]
% Nodules [8]: 100%
% Tumor Relapse [8]: 100%
Median Nodule Apparition Time [8]: 22
Median Time of Relapse [8]: 36
T/C % D21 [8]: 5%
TGDI [8]: 5.11
median TGD × 5 [8]: 66.48 days
% Nodules [9]: 33%
% Tumor Relapse [9]: 100%
Median Nodule Apparition Time [9]: 7
Median Time of Relapse [9]: 11
T/C % D21 [9]: 40%
TGDI [9]: 1.74
median TGD × 5 [9]: 27.87 days
% Nodules [10]: 30%
% Tumor Relapse [10]: 100%
Median Nodule Apparition Time [10]: 50
Median Time of Relapse [10]: 4
T/C % D21 [10]: 48%
T/C % D42 [10]: 12%
TGDI [10]: >2.81
median TGD × 5 [10]: >64 days
% Nodules [11]: 56%
% Tumor Relapse [11]: 100%
Median Nodule Apparition Time [11]: 17
Median Time of Relapse [11]: 63
T/C % D21 [11]: 11%
TGDI [11]: >4.54
median TGD × 5 [11]: >84 days
